Columns and labels:
[1] = parameters: method as in PMID 21498533; conditions: cited from earlier work
[2] = Micro-PET/CT brain imaging in ICR mice with thiamine deficiency (TD) and control mice; assay type: in vivo; conditions: control mice (C57BL/6 and ICR, Fig. 3a, c)
Text: Eight-week-old male C57BL/6 and ICR mice were randomly divided into two groups: TD mouse models (n = 2 for C57BL/6, one died due to anesthesia during micro-PET/CT scanning; n = 3 for ICR) were established by feeding thiamine-deprived diet (Trophic Animal Feed High-tech Co., Ltd., China). Control mice (n = 3 for each strain) were fed the general diet. Twenty-eight days later, all mice received PET/CT scanning.
The animals were anesthetized by inhaling 1.5–2% of isoflurane in air (1.5 L/min) and received CT scan for acquiring structure image and attenuation correction data. […] Brain PET imaging was immediately performed and dynamically acquired for 90 min with an energy window of 350–650 KeV and a time window of 3.438 ns. […] Dynamic images were reconstructed by OSEM3D/SP-MAP algorithm with two iterations. After scanning, the mice were sacrificed.

In the case of `OC[C@H]1OC(O)[C@H]([18F])[C@@H](O)[C@@H]1O` (some centres unmarked) [FDG, [^18F]-fluorodeoxyglucose], the “SUV in the brains of mice” value [1] is listed as 1–2.

With ^18F-deoxy-thiamine the “SUVs in the brains” value [2] was “less than 0.4”.

Source: publication PMC7575681 (EJNMMI Research, 2020)
